Measurements as given in patent publication US11091421B2, “Benzene fused heterocyclic derivative and pharmaceutical composition comprising the same” (TAIWANJ PHARMACEUTICALS CO., LTD., priority 2017, dated 2021).

Each compound was assayed against autotaxin (Homo sapiens, UniProt Q13822) (assay: Autotaxin inhibitor screening assay (phosphodiesterase activity, p-nitrophenol cleaved from bis-(p-nitrophenyl) phosphate, absorbance 410 nm)). Conditions: pH 9, compound at 30 μM; BNPP 3 mM, pH 9.0, 37° C., 30 minutes; read-out: Inhibition.
Assay type: biochemical
Method: As described above, the compounds in the present disclosure have the effect of inhibiting the activity of autotaxin, and can be used as autotaxin inhibitors. One method for inhibiting activity of autotaxin in environment is administering to the environment an effective amount of the compound of Formula (I). Please refer to the following experiment, the phosphodiesterase activity of autotaxin was measured using the p-nitrophenol that is a yellow product cleaved by autotaxin from the bis-(p-nitrophenyl) phosphate. Compound samples (10 μl) were incubated with autotaxin (10 μl) in a final volume of 200 μl assay buffer (5 mM CaCl2, 50 mM Tris-HCl, pH 9.0) containing bis-(p-nitrophenyl) phosphate (BNPP) at a final concentration of 3 mM at 37° C. After 30 minutes, absorbance at 410 nm of the reacted solution was measured. The percent inhibition for each test article (TA) (compound) was determined using the following equation. % Inhibition=(O.D.vehicle−O.D.TA)/O.D.vehicle×100

Compound	inhibition at 30 µM [%]
O=C(O)c1ccc(COc2ccc3c(c2)C/C(=C\c2cc(Cl)cc(C(F)(F)F)c2)C3=O)cc1 [Compound 129]	50 to 80
O=C(O)Cc1ccc(COc2ccc3c(c2)C/C(=C\c2cc(Cl)cc(Cl)c2)C3=O)cc1 [Compound 130]	> 80
O=C(O)COc1ccc(COc2ccc3c(c2)C/C(=C\c2cc(Cl)cc(Cl)c2)C3=O)cc1 [Compound 131]	> 80

Next, values leading:

inhibition at 30 µM [%]	Compound
< 50	COC(=O)c1ccc(COc2ccc3c(c2)C/C(=C\c2cc(Cl)cc(Cl)c2)C3=O)cc1 [Compound 132]
50 to 80	O=C(O)c1ccc(COc2ccc3c(c2)C/C(=C\c2cc(Cl)cc(Cl)c2)C3O)cc1 (stereo not drawn) [Compound 133]
> 80	O=C(O)c1ccc(COc2ccc3c(c2)CC(Cc2cc(Cl)cc(Cl)c2)C3=O)cc1 (stereo not drawn) [Compound 134]
